Test results as given in patent US6504005B1, “Long-acting drugs and pharmaceutical compositions comprising them” (Yeda Research and Development Co. Ltd., priority 1996, dated 2003).
Read-outs that look alike come from different tables or passages of the source. Blank lines part the entries; values can stand above or below the compound they belong to.

Experiments:
[1] = Solubility and appearance in aqueous buffer (pH 7.4)
[2] = background statement; cited from earlier work
[3] = test system: STZ-diabetic rats; test: Single subcutaneous administration to STZ-diabetic rats (blood glucose, daily weight gain); conditions: STZ rats, single s.c. 1 mg, followed seven days
[4] = test system: chymotrypsin and trypsin; test: Proteolysis by a mixture of chymotrypsin and trypsin (analytical HPLC); conditions: pH 7.4, 37° C., chymotrypsin and trypsin 0.5% w/w each
[5] = test system: normal rats; test: Single intraperitoneal administration to normal rats, blood glucose levels; format: in vivo; conditions: single i.p. injection, 3 mg/rat
[6] = target: insulin receptor tyrosine kinase (Rattus norvegicus, UniProt P15127); test: Insulin receptor tyrosine kinase activity, [poly(Glu4Tyr)] phosphorylating assay (cell-free)
Sequence of insulin receptor tyrosine kinase (P15127 27-759 limits assumed): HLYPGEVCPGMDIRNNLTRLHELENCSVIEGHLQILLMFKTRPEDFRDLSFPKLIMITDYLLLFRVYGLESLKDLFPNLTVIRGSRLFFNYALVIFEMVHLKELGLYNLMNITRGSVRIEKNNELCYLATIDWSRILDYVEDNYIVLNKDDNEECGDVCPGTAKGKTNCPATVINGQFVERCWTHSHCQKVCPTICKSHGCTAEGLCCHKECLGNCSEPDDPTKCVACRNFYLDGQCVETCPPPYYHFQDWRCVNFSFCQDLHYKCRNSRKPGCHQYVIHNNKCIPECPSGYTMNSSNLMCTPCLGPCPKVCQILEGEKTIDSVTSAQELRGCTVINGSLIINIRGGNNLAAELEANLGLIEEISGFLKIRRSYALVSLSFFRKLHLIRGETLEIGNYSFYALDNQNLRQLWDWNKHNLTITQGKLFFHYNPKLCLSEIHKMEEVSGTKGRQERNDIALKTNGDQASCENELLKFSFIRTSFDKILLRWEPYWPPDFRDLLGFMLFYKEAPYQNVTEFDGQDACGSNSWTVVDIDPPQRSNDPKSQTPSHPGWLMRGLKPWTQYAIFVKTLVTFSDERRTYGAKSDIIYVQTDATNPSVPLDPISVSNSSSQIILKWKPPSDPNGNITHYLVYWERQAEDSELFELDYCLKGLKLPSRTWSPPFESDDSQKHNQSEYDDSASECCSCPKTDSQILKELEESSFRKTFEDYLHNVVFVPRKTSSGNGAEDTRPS
Sequence of insulin receptor tyrosine kinase (P15127 764-1383 partner limits assumed): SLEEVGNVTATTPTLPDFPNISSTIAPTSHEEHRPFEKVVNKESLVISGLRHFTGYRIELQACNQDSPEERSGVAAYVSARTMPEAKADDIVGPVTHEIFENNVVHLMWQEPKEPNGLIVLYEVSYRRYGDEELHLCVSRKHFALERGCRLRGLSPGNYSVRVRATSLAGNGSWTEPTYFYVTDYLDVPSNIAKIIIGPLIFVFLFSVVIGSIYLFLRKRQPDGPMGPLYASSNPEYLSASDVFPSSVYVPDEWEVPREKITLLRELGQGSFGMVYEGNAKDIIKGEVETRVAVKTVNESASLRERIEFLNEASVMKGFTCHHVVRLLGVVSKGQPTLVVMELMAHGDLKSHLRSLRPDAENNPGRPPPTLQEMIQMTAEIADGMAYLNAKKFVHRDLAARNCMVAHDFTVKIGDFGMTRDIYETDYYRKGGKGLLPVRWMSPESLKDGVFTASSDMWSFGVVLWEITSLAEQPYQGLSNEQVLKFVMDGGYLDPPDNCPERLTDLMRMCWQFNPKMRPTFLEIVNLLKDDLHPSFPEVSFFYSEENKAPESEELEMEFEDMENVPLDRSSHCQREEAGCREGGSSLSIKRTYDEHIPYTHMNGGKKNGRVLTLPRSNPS

[7] = test system: Staphylococcus aureus; conditions: for Antimicrobial potency (%): relative to cephalexin control; for IC50: read-out: Concentration inhibiting 50% of bacterial growth (μM) (IC50)
Protocol: At the indicated time points, aliquots were withdrawn and analyzed for their potency to arrest growth of Staphylococcus aureus. Bacterial growth was then evaluated by increased turbidity measured spectroscopically at 700 nm.

[8] = test system: penicillinase
[9] = test system: experimental animal models; conditions: cited from earlier work

Compound: Native insulin: Human insulin, native hormone; parent drug and reference
- Appearance in aqueous buffer (pH 7.4) [1]: clear
- Solubility in aqueous buffer (pH 7.4, mg/ml) [1]: ˜4 or higher mg/ml
- Half-life in plasma [2]: 5 to 6 min
- Daily weight gain [3]: 0.57±0.08 g/rat/day
- Proteolysis t½ [4]: 30 min
- Period of hypoglycemia / reduced blood glucose [5]: about 12 hours
- Recovery from hypoglycemia, t½ [5]: 8 h
- Biological potency following incubation (2 days, 37° C., pH 8.5) ([6]; after 2 days, 37° C., pH 8.5): 100
- Biological potency (%) ([6]; of native insulin potency, before incubation, [poly(Glu4Tyr)] phosphorylating assay): 100%
- Concentration for half maximal effect ([6]; receptor tyrosine kinase assay): 20 ± 3 ng/mL

- Stability upon incubation ([7]; pH 7.4, 37° C.): significantly more stable
- IC50 ([7]; after 1 day at pH 7.4, 37° C.): 15 µM
- IC50 ([7]; after 3 days at pH 7.4, 37° C.): 9 µM
- IC50 ([7]; after 6 days at pH 7.4, 37° C.): 4.5 µM
- IC50 ([7]; no incubation): 23 µM
Compound: CC1=C(C(=O)O)N2C(=O)[C@@H](NC(=O)[C@H](NC(=O)OCC3c4ccccc4-c4ccccc43)c3ccccc3)[C@H]2SC1 [Fmoc-cephalexin, N-Fmoc-cephalexin]
- Antimicrobial potency (%) ([7]; after 1 day at pH 7.4, 37° C.): 10%
- Antimicrobial potency (%) ([7]; after 3 days at pH 7.4, 37° C.): 59%
- Antimicrobial potency (%) ([7]; after 6 days at pH 7.4, 37° C.): 100%
- Antimicrobial potency (%) ([7]; after 6 days at pH 7.4, 37° C., listed as N-Fmoc-cephalexin): about 50%
- Antimicrobial potency (%) ([7]; no incubation): ~6%
- Stability to hydrolysis by penicillinase [8]: more stable to hydrolysis by penicillinase than the parent compound

Compound: CC(C)C[C@H](NC(=O)OCC1c2ccccc2-c2ccccc21)C(=O)O [Fmoc-leucine]
- Index of toxicity [9]: low index of toxicity
